From ChEMBL document CHEMBL5096158, “HIV latency reversal agents: A potential path for functional cure?” (Eur J Med Chem, 2021)

How the values were obtained:
[1] = test system: Human immunodeficiency virus 1; assay: Reactivation of HIV-1 latency infected in GFP-fused human J-Lat 9.2 cells assessed as increase in GFP expression at 1 uM incubated for 24 hrs by flow cytometry; assay type: functional
[2] = Cytotoxicity against human ACH-2 cells assessed as reduction in cell viability incubated for 48 hrs by WST-8 assay; assay type: toxicity, cell-based
[3] = Cytotoxicity against human U1 cells assessed as reduction in cell viability incubated for 48 hrs by WST-8 assay; assay type: toxicity, cell-based
[4] = Cytotoxicity against human PBMC cells assessed as reduction in cell viability incubated for 48 hrs by WST-8 assay; assay type: toxicity, cell-based
[5] = test system: Human immunodeficiency virus 1; assay: Reversal of HIV-1 latency in human ACH-2 cells assessed as increase in GFP positive cells incubated for 24 hrs by flow cytometry; assay type: functional, organism-based, ACH-2 cell line; conditions: Human immunodeficiency virus 1, ACH-2, 24 h
[6] = target: Protein kinase C gamma type (Homo sapiens, UniProt P05129); assay: Displacement of 3H-PDBu from recombinant human PKCgamma incubated for 25 mins by scintillation counter analysis
[7] = Inhibition of HIV-1 latency infected in human U1 cells assessed as increase in p24 expression level incubated for 48 hrs by ELISA; assay type: functional, cell-based; conditions: Human immunodeficiency virus 1, U1, 48 h
[8] = test system: Human immunodeficiency virus 1; assay: Reactivation of HIV-1 latency in human CD4+ve Th cells assessed as increase in GFP expression at 3 nM incubated for 24 hrs by flow cytometry; assay type: functional
[9] = test system: Human immunodeficiency virus 1; assay: Reactivation of HIV-1 latency in human J-Lat Tat-GFP Clone A1 cells assessed as increase in GFP expression at 23 pM incubated for 24 hrs by flow cytometry; assay type: functional
[10] = test system: Human immunodeficiency virus 1; assay: Reactivation of HIV-1 latency in human J-Lat Tat-GFP Clone A1 cells assessed as increase in GFP expression at 375 pM incubated for 24 hrs by flow cytometry; assay type: functional
[11] = test system: Human immunodeficiency virus 1; assay: Reactivation of HIV-1 latency in human U1 cells assessed as fold increase in HIV transcription by measuring GFP expression at 6 nM incubated for 24 hrs in presence of JQ1 by flow cytometry; assay type: functional
[12] = test system: Human immunodeficiency virus 1; assay: Reactivation of HIV-1 latency in human U1 cells assessed as fold increase in HIV transcription by measuring GFP expression at 6 nM incubated for 24 hrs by flow cytometry; assay type: functional
[13] = test system: Human immunodeficiency virus 1; assay: Reversal of HIV-1 latency in human PBMC from HIV infected donors assessed as increase in p24Gag viral protein level incubated for 24 hrs by ELISA; assay type: functional
[14] = test system: Human immunodeficiency virus 1; assay: Reversal of HIV-1 latency in human J-Lat 10.6 cells assessed as increase in GFP expression incubated for 24 hrs by flow cytometry; assay type: functional, organism-based; conditions: Human immunodeficiency virus 1, J-Lat 10.6, 24 h
[15] = test system: Human immunodeficiency virus 1; assay: Reversal of HIV-1 latency in human J-Lat 8.4 cells assessed as increase in GFP expression incubated for 24 hrs by flow cytometry; assay type: functional, organism-based; conditions: Human immunodeficiency virus 1, J-Lat 8.4, 24 h
[16] = test system: Human immunodeficiency virus 1; assay: Reactivation of HIV-1 latency infected in GFP-fused human J-Lat 10.6 cells assessed as increase in GFP expression incubated for 48 hrs by flow cytometry; assay type: functional, organism-based; conditions: Human immunodeficiency virus 1, J-Lat 10.6, 48 h
[17] = test system: Human immunodeficiency virus 1; assay: Reversal of HIV-1 latency in human J-Lat 9.2 cells assessed as increase in GFP expression incubated for 24 hrs by flow cytometry; assay type: functional, organism-based; conditions: Human immunodeficiency virus 1, J-Lat 9.2, 24 h
[18] = test system: Human immunodeficiency virus 1; assay: Reactivation of HIV-1 latency infected in GFP-fused human J-Lat C11 cells assessed as increase in GFP expression incubated for 48 hrs by flow cytometry; assay type: functional, organism-based; conditions: Human immunodeficiency virus 1, J-Lat C11, 48 h

Compound CCCc1nc2c(N)nc3ccccc3c2s1 has an Activity [1] of 18%.
With CCCCCCCCCCc1ccc2c(c1)N(C)[C@@H](C(C)C)C(=O)NC(CO)C2 (some centres undefined) the CC50 at 48 h [2] was 21100 nM, the CC50 at 48 h [3] was 61200 nM and the CC50 at 48 h [4] was 39900 nM. It also gave an EC50 [5] of 25 nM.
Compound CC1=C[C@H]2[C@@]3(O)[C@H](C)C[C@]4(OC(=O)Cc5cccc6ccccc56)[C@H]([C@@H]3C=C(CO)C[C@]2(O)C1=O)C4(C)C has a Ki [6] of 0.65 nM and an EC50 [7] of 10.2 nM.
Compound CCCCCC(=O)O[C@H]1C(C)=C[C@]23C(=O)[C@H](C=C(CO)[C@@H](O)[C@]12O)C1C(C[C@H]3C)C1(C)C (some centres undefined) has an Activity [8] of 100%, an Activity [9] of 20% and an Activity [10] of 50%.
In the case of C/C=C(\C)C(=O)O[C@H]1C(C)=C[C@]23C(=O)[C@H](C=C(CO)[C@@H](O)[C@]12O)C1C(C[C@H]3C)C1(C)C (some centres undefined), the “fold change (FC)” value [11] is reported as 250 and the “fold change (FC)” value [12] is reported as 25.
CO[C@@H](CC[C@H](C)[C@H]1O[C@@]23C[C@H](OC(=O)C[C@H]([C@@H](C)O)OC(=O)C[C@](O)(O2)[C@H](C)CC3(C)C)[C@@H]1C)c1cc(O)ccc1Br [APLYSIATOXIN] gave an Activity [13] of 56%.
With CC(=O)O[C@@]12C[C@@H](C)[C@@]3(O)[C@@H](C=C(CO)C[C@]4(O)C(=O)C(C)=C[C@@H]34)[C@@H]1C2(C)C [PROSTRATIN] the EC50 [14] was 3.3 nM, the EC50 [15] was 11 nM and the EC50 [16] was 865 nM. The EC50 [17] was 45 nM, the EC50 [7] was over 1000 nM and the EC50 [18] was 768 nM.
